Experimental data from patent publication US20080293696A1, “2-Aminoarylcarboxamides Useful as Cancer Chemotherapeutic Agents” (Bayer Pharmaceuticals Corporation, priority 2004, published 2008).
Where a name gives a salt, the structure may show the parent alone.

system: PAKT/PKB (p-(S473) AKT) in H209 small cell lung carcinoma cells stimulated with Stem Cell Factor; experiment: PAKT/PKB Cytoblot Assay with H209 cells (SCF-stimulated p-(S473) AKT); assay type: cell-based; conditions: Homo sapiens, NCI-H209, compound 1 hour, SCF 25 ng/mL 5 minutes, group: between 500 nM and 1 μM (units in value)
Experimental: PAKT/PKB Cytoblot Assay Protocol with H209 Cells
H209 small cell lung carcinoma cells in log phase were plated at 50,000 cells/well in 96-well poly-lysine coated, clear bottom/black-sided plates (BD Cat # 354640) in 100 μl RPMI medium containing 0.1% (w/v) BSA, and incubated overnight at 37° C. in 5% CO2 incubator. The following day, compounds (10 mM stock solutions in DMSO) were added to the plates to generate final concentrations of 0.0, 0.01, 0.03, 0.1, 0.3, 1.0, 3.0 and 10 μM for IC50 determinations and incubated for 1 hour at 37° C. Cells were then left untreated or stimulated with Stem Cell Factor (SCF: Biosource Cat # PHC2116) at a final concentration of 25 ng/mL for 5 minutes at 37° C. in 5% CO2 incubator. The media was then removed using a vacuum manifold and the cells were washed once with Tris Buffered Saline (TBS).
Cells were then fixed by adding 200 μl of cold 3.7% (v/v) formaldehyde in TBS to each well for 15 minutes at 4° C. After removal of the formaldehyde, the cells were treated with the addition of 50 μl of methanol (at −20° C.) to each well for 5 minutes. After removal of the methanol, […] of 1% (w/v) BSA in TBS was added to each well to block non-specific antibody binding sites and the plate was incubated at room temperature for 30 minutes.
After removal of the blocking buffer, 50 μl of p-(S473) AKT rabbit polyclonal antibody (Cell Signaling Cat # 9277S) was added at a dilution of 1:250 in 0.1% (w/v) BSA in TBS, and the plate was incubated at room temperature for 1 hour. Plates were then washed 3 times with cold TBS containing 0.05% (v/v) Tween 20 (TBS-T) and […] of Horseradish peroxidase (HRP)-conjugated goat-anti-rabbit antibody (Amersham Cat # NA934V) at a dilution of 1:250 in TBS-T was added and the plate was incubated at room temperature for 1 h. After washing with ice-cold TBS-T four times, 100 μl of Enhanced Chemiluminescence (ECL) reagent (Amersham Cat# RPN2209) was added to each well and mixed on a mini-orbital shaker for 1 min. The plate was then read on a Perkin Elmer Victor 5 Multilabel Counter (#1420-0421).

Row | IC50 [nM] | Structure (SMILES)
1 | 500 to 1000 | CCN1CCCC1CNC(=O)c1cc(CNc2ccccc2C(=O)Nc2ccc3c(c2)OC(F)(F)O3)ccn1 (stereo not drawn) [Example 84, 4-{[(2-{[(2,2-difluoro-1,3-benzodioxol-5-yl)amino]carbonyl}phenyl)amino]methyl}-N-[(1-ethylpyrrolidin-2-yl)methyl]pyridine-2-carboxamide]
2 | 500 to 1000 | COc1ccc(NC(=O)Nc2cc(CNc3ccccc3C(=O)Nc3ccc4c(c3)OC(F)(F)O4)ccn2)cc1 [Example 163, N-(2,2-difluoro-1,3-benzodioxol-5-yl)-2-({[2-({[(4-methoxyphenyl)amino]carbonyl}amino)pyridin-4-yl]methyl}amino)benzamide]

same assay, conditions: Homo sapiens, NCI-H209, compound 1 hour, SCF 25 ng/mL 5 minutes, group: between 1 and 3 μM

Row | IC50 [nM] | Structure (SMILES)
3 | 1000 to 3000 | CN(C)C(=O)c1cc(CNc2ccc(F)cc2C(=O)Nc2ccc3c(c2)OC(F)(F)O3)ccn1 [Example 42, 4-{[(2-{[(2,2-difluoro-1,3-benzodioxol-5-yl)amino]carbonyl}-4-fluorophenyl)amino]methyl}-N,N-dimethylpyridine-2-carboxamide]
4 | 1000 to 3000 | CCN(CCNC(=O)c1cc(CNc2ccccc2C(=O)Nc2ccc3c(c2)OC(F)(F)O3)ccn1)c1cccc(C)c1 [Example 106, 4-{[(2-{[(2,2-difluoro-1,3-benzodioxol-5-yl)amino]carbonyl}phenyl)amino]methyl}-N-{2-[ethyl(3-methylphenyl)amino]ethyl}pyridine-2-carboxamide]
5 | 1000 to 3000 | CC(C)C[C@H](CO)NC(=O)c1cc(CNc2ccccc2C(=O)Nc2ccc3c(c2)OC(F)(F)O3)ccn1 [Example 109, 4-{[(2-{[(2,2-difluoro-1,3-benzodioxol-5-yl)amino]carbonyl}phenyl)amino]methyl}-N-[1-(hydroxymethyl)-3-methylbutyl]pyridine-2-carboxamide]

same assay, conditions: Homo sapiens, NCI-H209, compound 1 hour, SCF 25 ng/mL 5 minutes, group: less than 500 nM

Row | Structure (SMILES) | IC50 [nM]
6 | COC(C)(C)C(=O)Nc1cc(CNc2ccccc2C(=O)Nc2ccc3c(c2)OC(F)(F)O3)ccn1 [Example 159, N-(2,2-difluoro-1,3-benzodioxol-5-yl)-2-[({2-[(2-methoxy-2-methylpropanoyl)amino]pyridin-4-yl}methyl)amino]benzamide] | < 500
7 | Nc1cc(CNc2ccccc2C(=O)Nc2ccc3c(c2)OC(F)(F)O3)ccn1 [Example 153, 2-{[(2-aminopyridin-4-yl)methyl]amino}-N-(2,2-difluoro-1,3-benzodioxol-5-yl)benzamide] | < 500
8 | CNC(=O)c1cc(CNc2ccc(F)cc2C(=O)Nc2ccc3c(c2)OC(F)(F)O3)ccn1 [Example 31, 4-{[(2-{[(2,2-difluoro-1,3-benzodioxol-5-yl)amino]carbonyl}-4-fluorophenyl)amino]methyl}-N-methylpyridine-2-carboxamide] | < 500
9 | O=C(NC1CC1)c1cc(CNc2ccccc2C(=O)Nc2ccc3c(c2)OC(F)(F)O3)ccn1 [Example 74, N-cyclopropyl-4-{[(2-{[(2,2-difluoro-1,3-benzodioxol-5-yl)amino]carbonyl}phenyl)amino]methyl}pyridine-2-carboxamide] | < 500
10 | CCCOCCCNC(=O)c1cc(CNc2ccccc2C(=O)Nc2ccc3c(c2)OC(F)(F)O3)ccn1 [Example 124, 4-{[(2-{[(2,2-difluoro-1,3-benzodioxol-5-yl)amino]carbonyl}phenyl)amino]methyl}-N-(3-propoxypropyl)pyridine-2-carboxamide] | < 500
11 | CS(=O)(=O)CCNC(=O)c1cc(CNc2ccccc2C(=O)Nc2ccc3c(c2)OC(F)(F)O3)ccn1 [Example 83, 4-{[(2-{[(2,2-Difluoro-1,3-benzodioxol-5-yl)amino]carbonyl}phenyl)amino]methyl}-N-[2-(methylsulfonyl)ethyl]pyridine-2-carboxamide] | < 500
12 | N#Cc1cc(CNc2ccccc2C(=O)Nc2ccc3c(c2)OC(F)(F)C(F)(F)O3)ccn1 [Example 22, 2-{[(2-cyanopyridin-4-yl)methyl]amino}-N-(2,2,3,3-tetrafluoro-2,3-dihydro-1,4-benzodioxin-6-yl)benzamide] | < 500
13 | CNC(=O)Nc1cc(CNc2ccccc2C(=O)Nc2ccc3c(c2)OC(F)(F)O3)ccn1 [Example 165, N-(2,2-difluoro-1,3-benzodioxol-5-yl)-2-{[(2-{[(methylamino)carbonyl]amino}pyridin-4-yl)methyl]amino}benzamide] | < 500
14 | CNC(=O)c1cc(CNc2cc(F)ccc2C(=O)Nc2ccc3c(c2)OC(F)(F)C(F)(F)O3)ccn1 [Example 32, 4-{[(5-fluoro-2-{[(2,2,3,3-tetrafluoro-2,3-dihydro-1,4-benzodioxin-6-yl)amino]carbonyl}phenyl)amino]methyl}-N-methylpyridine-2-carboxamide] | < 500
15 | O=C(NCC(O)CO)c1cc(CNc2ccccc2C(=O)Nc2ccc3c(c2)OC(F)(F)O3)ccn1 (stereo not drawn) [Example 79, 4-{[(2-{[(2,2-Difluoro-1,3-benzodioxol-5-yl)amino]carbonyl}phenyl)amino]methyl}-N-(2,3-dihydroxypropyl)pyridine-2-carboxamide] | < 500
16 | CNc1nccc(CNc2ccccc2C(=O)Nc2ccc3c(c2)OC(F)(F)C(F)(F)O3)n1 [Example 51, 2-({[2-(methylamino)pyrimidin-4-yl]methyl}amino)-N-(2,2,3,3-tetrafluoro-2,3-dihydro-1,4-benzodioxin-6-yl)benzamide] | < 500
17 | CC(=O)Nc1cc(CNc2ccccc2C(=O)Nc2ccc3c(c2)OC(F)(F)O3)ccn1 [Example 152, 2-({[2-(acetylamino)pyridin-4-yl]methyl}amino)-N-(2,2-difluoro-1,3-benzodioxol-5-yl)benzamide] | < 500
18 | CCCOCCNC(=O)c1cc(CNc2ccccc2C(=O)Nc2ccc3c(c2)OC(F)(F)O3)ccn1 [Example 114, 4-{[(2-{[(2,2-difluoro-1,3-benzodioxol-5-yl)amino]carbonyl}phenyl)amino]methyl}-N-(2-propoxyethyl)pyridine-2-carboxamide] | < 500
19 | COc1cccc(NCc2ccncc2)c1C(=O)Nc1ccc2c(c1)OC(F)(F)O2 [Example 11, N-(2,2-difluoro-1,3-benzodioxol-5-yl)-2-methoxy-6-[(pyridin-4-ylmethyl)amino]benzamide] | < 500
20 | NC(=O)c1cc(CNc2ccccc2C(=O)Nc2ccc3c(c2)OC(F)(F)O3)ccn1 [Example 75, 4-{[(2-{[(2,2-Difluoro-1,3-benzodioxol-5-yl)amino]carbonyl}phenyl)amino]methyl}pyridine-2-carboxamide] | < 500

Now from value to compound:

Row | IC50 [nM] | Structure (SMILES)
21 | < 500 | O=C(Nc1ccc2c(c1)OC(F)(F)O2)c1ccccc1NCc1ccnc(NCC(O)CO)c1 (stereo not drawn) [Example 149, N-(2,2-difluoro-1,3-benzodioxol-5-yl)-2-[({2-[(2,3-dihydroxypropyl)amino]pyridin-4-yl}methyl)amino]benzamidetrifluoroacetate (salt)]
22 | < 500 | O=C(Nc1ccc2c(c1)OC(F)(F)O2)c1ccccc1NCc1ccnc(NCCc2c[nH]cn2)c1 [Example 147, N-(2,2-difluoro-1,3-benzodioxol-5-yl)-2-{[(2-{[2-(1H-imidazol-4-yl)ethyl]amino}pyridin-4-yl)methyl]amino}benzamidebis(trifluoroacetate)]
23 | < 500 | O=C(Nc1ccc2c(c1)OC(F)(F)O2)c1cc(F)ccc1NCc1ccncc1 [Example 20, N-(2,2-difluoro-1,3-benzodioxol-5-yl)-5-fluoro-2-[(pyridin-4-ylmethyl)amino]benzamide]
24 | < 500 | O=C(Nc1ccc2c(c1)OC(F)(F)O2)c1ccccc1NCc1ccnc(NCCCn2ccnc2)c1 [Example 146, N-(2,2-difluoro-1,3-benzodioxol-5-yl)-2-{[(2-{[3-(1H-imidazol-1-yl)propyl]amino}pyridin-4-yl)methyl]amino}benzamidebis(trifluoroacetate)]
25 | < 500 | O=C(Nc1ccc2c(c1)OC(F)(F)O2)c1ccc(F)cc1NCc1ccncc1 [Example 21, N-(2,2-difluoro-1,3-benzodioxol-5-yl)-4-fluoro-2-[(pyridin-4-ylmethyl)amino]benzamide]
26 | < 500 | O=C(Nc1ccc2c(c1)OC(F)(F)C(F)(F)O2)c1cnccc1NCc1ccncc1 [Example 14, 4-[(pyridin-4-ylmethyl)amino]-N-(2,2,3,3-tetrafluoro-2,3-dihydro-1,4-benzodioxin-6-yl)nicotinamide]
27 | < 500 | CNC(=O)c1cc(CNc2ccccc2C(=O)Nc2ccc3c(c2)OC(F)(F)C(F)(F)O3)ccn1 [Example 3, N-methyl-4-{[(2-{[(2,2,3,3-tetrafluoro-2,3-dihydro-1,4-benzodioxin-6-yl)amino]carbonyl}phenyl)amino]methyl}pyridine-2-carboxamide]
